According to patent US8202889B2, “Inhibitors of bacterial IMPDH” (Vertex Pharmaceuticals Incorporated, priority 2005, dated 2012):

Key:
E. coli IMPDH enzyme = E. coli IMPDH enzyme (Escherichia coli, UniProt P0ADG7); assay: IMPDH Activity Inhibition Assay; type: biochemical; details: for activity at 25 µM: percent remaining activity of E. coli IMPDH enzyme at 25 μM inhibitor (I) and 14 nM enzyme (E); for activity at 10 µM: percent remaining activity of E. coli IMPDH enzyme at 10 μM inhibitor (I) and 55 nM enzyme (E)
Method: IMP dehydrogenase activity was assayed according to the method reported by Hedstrom. [Hedstrom, L. et al., Biochemistry, 39, pp. 9804-9810 (2000), the disclosure of which is herein incorporated by reference]. Table 1 below lists the percent remaining activity of E. coli IMPDH enzyme (E) at either 25 μM inhibitor (I) and 14 nM enzyme (E) or 10 μM inhibitor (I) and 55 nM enzyme (E). “ND” means no data.

bacterial IMPDH = details: Hedstrom et al., Curr. Med. Chem. 1999; cited from earlier work

E. coli IMPDH enzyme, sequence (P0ADG7 whole entry): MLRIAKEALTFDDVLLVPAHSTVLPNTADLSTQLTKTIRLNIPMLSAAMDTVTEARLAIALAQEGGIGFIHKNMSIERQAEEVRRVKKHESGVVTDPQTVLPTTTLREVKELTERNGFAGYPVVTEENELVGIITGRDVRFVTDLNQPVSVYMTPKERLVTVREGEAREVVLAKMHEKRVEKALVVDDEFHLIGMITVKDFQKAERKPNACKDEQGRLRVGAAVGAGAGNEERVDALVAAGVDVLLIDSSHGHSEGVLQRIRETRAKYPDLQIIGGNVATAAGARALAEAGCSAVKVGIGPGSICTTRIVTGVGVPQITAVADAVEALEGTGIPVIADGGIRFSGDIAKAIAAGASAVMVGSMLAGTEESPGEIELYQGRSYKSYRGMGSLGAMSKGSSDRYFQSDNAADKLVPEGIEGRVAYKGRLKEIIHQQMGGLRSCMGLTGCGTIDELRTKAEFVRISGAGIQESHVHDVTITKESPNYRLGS

SMILES | activity at 10 µM (E. coli IMPDH enzyme) [%] | further results
O=C(Nc1nc2ccccc2[nH]1)c1ccc2cc(C(=O)Nc3nc4ccccc4[nH]3)ccc2c1 [Compound 6] |  | activity at 25 µM (E. coli IMPDH enzyme): 90%
Cc1cccc(NC(=O)c2ccc3cc(C(=O)Nc4cccc(C)n4)ccc3c2)n1 [Compound 8] | 87 | 
O=C(Nc1nccs1)c1ccc2cc(C(=O)Nc3nccs3)ccc2c1 [Compound 11] | 97 | 
COc1ccc(-c2csc(NC(=O)c3cc4ccccc4cc3OC)n2)cc1OC [Compound 10] | 73 | 
O=C(Nc1nncs1)c1ccc2cc(C(=O)Nc3nncs3)ccc2c1 [Compound 12] | 100 | 
COc1c(C)c2c(c(O)c1C/C=C(\C)CCC(=O)O)C(=O)OC2 [mycophenolic acid] |  | fold less potent against bacterial IMPDH versus mammalian IMPDH (bacterial IMPDH): > 1000 fold
COc1cc2ccccc2cc1C(=O)Nc1nc(-c2c(OC)ccc3ccccc23)cs1 [Compound 9] | 100 | 
CCOc1cccc2sc(NC(=O)c3cc4ccccc4cc3OC)nc12 [Compound 7] |  | activity at 25 µM (E. coli IMPDH enzyme): 76%
